In patent US8633324B2, “Denibulin di-hydrochloride” (Medicinova, Inc., priority 2011, dated 2014):
Where a name gives a salt, the structure may show the parent alone.

How the values were obtained:
[1] = Osmolality and pH of solutions in water and in 15% HPBCD; format: physicochemical
Procedure: Solutions were prepared by weighing MN-029 di-hydrochloride salt into 10-mL volumetric flasks. The drug was dissolved in water with vortexing, and samples were diluted to volume with water. Solutions of 1, 2, 4, 6 and 8 mg/mL were made according to this procedure. The samples were allowed to sit at room temperature overnight prior to pH and osmolality measurements.
All samples were clear except for the 8 mg/mL solution, which was initially clear but precipitated upon sitting overnight. As shown in Table 10 and in FIGS. 9 and 10, the pH declined in an almost linear fashion with increasing drug concentration while osmolality increased linearly with concentration up to 6 mg/mL.
The pH and osmolality were also measured for solutions of MN-029 di-hydrochloride salt in a 15% solution of hydroxypropyl-β-cyclodextrin (HPBCD). Solutions of 5, 10, 15, 20, and 30 mg/mL were prepared for analysis. The solutions were made by weighing out an appropriate amount of the compound into HPLC vials to which 1.00 mL of 15% HPBCD was added with brief vortexing. Although solutions were clear upon mixing, they were shaken overnight on an orbital shaker to assure equilibration. All solutions remained clear after overnight shaking. HPBCD at a concentration of 15% was sufficient to solubilize MN-029 di-hydrochloride up to a concentration of 30 mg/mL. As shown in Table 11 and in FIGS. 11 and 12, the pH decreased almost linearly with increasing MN-029 di-hydrochloride concentration, while the osmolality increased linearly. The dotted lines on the pH graphs (FIGS. 9 and 11) connect the data points for clarity while the dotted lines on the osmolality graphs (FIGS. 10 and 12) are linear regressions of the data which are extrapolated back to zero drug concentration.

[2] = Solubility of MN-029 di-hydrochloride in aqueous citric acid; format: physicochemical; settings: aqueous citric acid (4.75 mg/ml), 25° C., 12 hours shaking
From the text: Without being held to any particular theory, the present inventor believes that the enhanced solubility of the di-hydrochloride salt is enhanced by the lower pH of the resulting solution. That is, the reduced pH of a solution of the di-hydrochloride of MN-029 improves its aqueous solubility. To test this theory, the present inventor measured the solubility of MN-029 di-hydrochloride in aqueous citric acid and in citrate buffers at different pH values. Two samples of the di-hydrochloride salt in aqueous citric acid were prepared by adding 10 ml of an aqueous citric acid solution to 36.9 mg and 74.5 mg of MN-029 di-hydrochloride salt in a vial.
After equilibration with shaking at 25° C. for 12 hours, visual inspection of the solution in each vial indicated a clear colorless solution with no solid residue. Accordingly, the solubility MN-029 di-hydrochloride in aqueous citric acid (4.75 mg/ml) was calculated to exceed […] of the di-hydrochloride per milliliter of aqueous citric acid.

[3] = In Deionized Water, 8.00* mg/mL (precipitated upon sitting overnight)

COC(=O)Nc1nc2ccc(Sc3ccc(NC(=O)[C@H](C)N)cc3)cc2[nH]1 [MN-029 di-hydrochloride, carbamic acid N-[6-[[4-[[(2S)-2-amino-1-oxopropyl]amino]phenyl]thio]-1H-benzimidazol-2-yl]-methyl ester di-hydrochloride]
solubility ([1]; 15% HPBCD solution, aqueous with cosolvent or surfactant or cyclodextrin, thermodynamic from solid, read-out: concentration solubilized by 15% HPBCD (solutions clear after overnight shaking)): ≥ 30 mg/mL
Osmolality ([1]; In 15% HPBCD, 5.35 mg/mL): 162 mOsm/kg
pH ([1]; In 15% HPBCD, 5.35 mg/mL): 2.40
Osmolality ([1]; In 15% HPBCD, 10.1 mg/mL): 182 mOsm/kg
pH ([1]; In 15% HPBCD, 10.1 mg/mL): 2.21
Osmolality ([1]; In 15% HPBCD, 15.3 mg/mL): 203 mOsm/kg
pH ([1]; In 15% HPBCD, 15.3 mg/mL): 2.10
Osmolality ([1]; In 15% HPBCD, 20.1 mg/mL): 221 mOsm/kg
pH ([1]; In 15% HPBCD, 20.1 mg/mL): 2.04
Osmolality ([1]; In 15% HPBCD, 30.1 mg/mL): 259 mOsm/kg
pH ([1]; In 15% HPBCD, 30.1 mg/mL): 1.89
Osmolality ([1]; In Deionized Water, 1.05 mg/mL): 6 mOsm/kg
pH ([1]; In Deionized Water, 1.05 mg/mL): 3.25
Osmolality ([1]; In Deionized Water, 2.04 mg/mL): 11 mOsm/kg
pH ([1]; In Deionized Water, 2.04 mg/mL): 3.03
Osmolality ([1]; In Deionized Water, 4.03 mg/mL): 22 mOsm/kg
pH ([1]; In Deionized Water, 4.03 mg/mL): 2.82
Osmolality ([1]; In Deionized Water, 5.96 mg/mL): 32 mOsm/kg
pH ([1]; In Deionized Water, 5.96 mg/mL): 2.63
Osmolality [1, 3]: 36* mOsm/kg
pH [1, 3]: 1.90*
solubility in aqueous citric acid [2]: exceed 7.54 mg of the di-hydrochloride per milliliter of aqueous citric acid
